Tested on: NPY2R
Assay: Ca^2+ imaging, NPY2R‐HEK293T cells
Type: cell-based, human
Conditions: PYY (3-36) per Fig. S2B, Fluo‐8 AM, Ringer's solution pH 7.4, ΔF/F0, n = 10
Procedure: HEK293T cells (Lenti‐X 293T Cell line; TaKaRa, Shiga, Japan) were maintained in Dulbecco's Modified Eagle Medium (DMEM; Fujifilm Wako Pure Chemical Industries, Osaka, Japan) supplemented with 10% fetal bovine serum (Biowest, Nuaillé, France), 1% non‐essential amino acids (NEAA) (Fujifilm Wako Pure Chemical Industries), and 1% penicillin–streptomycin (P/S) (Fujifilm Wako Pure Chemical Industries) and cultured in non‐coated culture plates at 37 °C and in an incubator with 5% CO2. The culture medium was replaced every 2–3 days. At 80–90% confluence, the cell colonies were digested into single cells using TrypLE Express (Thermo Fisher Scientific). The resulting cells were used for lentiviral transfection and agonist experiments.
Figure S1 presents the protocol used for this experiment. Lentiviral vectors were acquired from VectorBuilder (VectorBuilder Japan, Inc., Kanagawa, Japan). […]
Transduced HEK293T and neurons were incubated with 10 μM Fluo‐8 AM, a calcium indicator (AAT Bioquest, Pleasanton, CA, USA), in each culture medium (Cell lines and cell culture and Induction to parasympathetic neurons sections) at 37 °C for 30 min. […] Fluorescence (excitation: 490 nm, emission: 525 nm) was detected using a confocal spinning disk confocal laser scanning unit (CSU‐W1; Yokogawa Electric, Tokyo, Japan) and an LED light (X‐Cite 120LED; Opto Science, Tokyo, Japan). […]

For “PYY: PYY (4400‐v; Peptide Institute, Inc.); PYY (3–36) in Ca2+ imaging”, the “Concentration giving response (increased intracellular Ca^2+ concentration)” value was greater than 10 nM.

Reference: publication PMC10761937, “Functional engineering of human iPSC‐derived parasympathetic neurons enhances responsiveness to gastrointestinal hormones” (FEBS Open Bio, 2023)
